Activity calls are given as the source filed them. The rule behind the calls is not given here.
Key:
[1] = in vivo ABHD6 inhibition in mouse liver, late-stage follow-up, in vivo study for DAGLb inhibitor project, competitive gel-based ABPP, fluorescence (AID 624041); conditions: in vivo dosing, anti-target, probe FP-Rh, stronger effect = higher value
[2] = target: Monoacylglycerol lipase ABHD6 (Mus musculus) (UniProt Q8R2Y0); assay: as above; conditions: in vivo dosing
Chain of Monoacylglycerol lipase ABHD6 (Mus musculus) (Q8R2Y0 whole entry, looked up): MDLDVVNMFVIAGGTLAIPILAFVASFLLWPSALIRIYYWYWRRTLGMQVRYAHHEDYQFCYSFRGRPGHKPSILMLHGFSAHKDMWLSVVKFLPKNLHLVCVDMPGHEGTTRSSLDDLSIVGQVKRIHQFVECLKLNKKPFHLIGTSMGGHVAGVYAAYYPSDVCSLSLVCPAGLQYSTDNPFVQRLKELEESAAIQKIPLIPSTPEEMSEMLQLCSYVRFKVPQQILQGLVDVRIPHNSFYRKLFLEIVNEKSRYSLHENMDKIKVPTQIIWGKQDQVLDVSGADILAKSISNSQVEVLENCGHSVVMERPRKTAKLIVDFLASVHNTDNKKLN

In the case of `COc1ccc(-c2ccc(-c3cn(C(=O)N4CCCCC4c4ccccc4)nn3)cc2)cc1` (stereo not drawn), the inhibition ([1]; 65 kDa SH, dose or concentration not given here) was 70% (inactive), the inhibition ([1]; 65 kDa SH, inhibition at 5 mg/kg) was 5% and the inhibition ([1]; 72 kDa SH, dose or concentration not given here) was 80% (inactive). It also gave an inhibition ([1]; 72 kDa SH, inhibition at 5 mg/kg) of 20%, an inhibition ([2]; probe FP-Rh, stronger effect = higher value, dose or concentration not given here) of 95% and an inhibition ([2]; probe FP-Rh, inhibition at 5 mg/kg, stronger effect = higher value) of 98%. The inhibition ([2]; probe HT-01, stronger effect = higher value, dose or concentration not given here) was 90% and the inhibition ([2]; probe HT-01, inhibition at 5 mg/kg, stronger effect = higher value) was 90%.

— PubChem BioAssay AID624041 (The Scripps Research Institute Molecular Screening Center, 2012)
